In US20190125790A1, “USE OF HYPOCHLOROUS ACID AS A TOPICAL ANTIMICROBIAL” (BIIOSMART TECHNOLOGIES LLC, priority 2016, published 2019):

What was measured:
[1] = test system: Staphylococcus aureus; assay: Antimicrobial efficacy of HOCl skin cleanser (Table 1); format: cell-based; conditions: 0.01% HOCl; 30 seconds
[2] = test system: Enterococcus faecalis; assay: as above; format: cell-based; conditions: 0.01% HOCl; 30 seconds
[3] = test system: Escherichia coli; assay: as above; format: cell-based; conditions: 0.01% HOCl; 30 seconds
[4] = test system: Pseudomona aeruginosa; assay: as above; format: cell-based; conditions: 0.01% HOCl; 30 seconds
[5] = test system: Enterobacter cloacae; assay: as above; format: cell-based; conditions: 0.01% HOCl; 30 seconds
[6] = test system: Enterococcus. faecium; assay: as above; format: cell-based; conditions: 0.01% HOCl; 30 seconds
[7] = test system: Human papilloma virus; assay: as above; format: cell-based; conditions: 0.01% HOCl; 30 seconds
[8] = test system: HIV (non-glp); assay: as above; format: cell-based; conditions: 0.01% HOCl; 30 seconds
[9] = test system: Bovine Diarrhea virus; assay: Efficacy at 30 seconds (Table 2); format: cell-based; conditions: 0.01 to 0.05% aqueous solution
[10] = test system: K. pneumoniae; assay: Efficacy at 30 seconds (Table 2); format: cell-based; conditions: 0.01 to 0.05% aqueous solution
[11] = test system: S. aureus Linezolid Resistant; assay: Efficacy at 30 seconds (Table 2); format: cell-based; conditions: 0.01 to 0.05% aqueous solution
[12] = test system: Trichophyton mentagrophytes; assay: Efficacy at 30 seconds (Table 2); format: cell-based; conditions: 0.01 to 0.05% aqueous solution
[13] = test system: S. pyogenes; assay: Efficacy at 30 seconds (Table 2); format: cell-based; conditions: 0.01 to 0.05% aqueous solution
[14] = test system: Candida albicans; assay: ASTM E2315 Time Kill Assay for Antimicrobial Agents; format: cell-based; conditions: 0.046% HOCl aqueous solution; 30 seconds; high organic load
Method: (§1) Table 3. below represents the efficacy of 0.046% aqueous hypochlorous acid solution in the presence of high organic load. ASTM E2315 Time Kill Assay for Antimicrobial Agents. The study was performed in ATS labs in Minnesota recommended by the U.S. FDA's Tentative Final Monograph for OTC Healthcare Antiseptic Drug. […] Additional times were evaluated: 1 minute, 5 minutes, and 10 minutes, all with and without organic soil (Using 10% whole milk and 5% Fetal Bovine Serum). The trend in the efficiency is maintained under the same proportions.

[15] = test system: S. marcenscens; assay: as above; format: cell-based; conditions: 0.046% HOCl aqueous solution; 30 seconds; high organic load
Method: as §1

[16] = test system: Herpes Simplex Virus type 2 (HSV-2); assay: Test of viral inactivation, ASTM E1052-96 viruses in suspension; format: cell-based; conditions: 0.04% HOCl aqueous solution; 30 seconds
[17] = test system: Vesicular Stomatitis Virus (VSV); format: cell-based; conditions: 0.04% HOCl aqueous solution; 30 seconds
[18] = test system: Enterovirus-71 (EV-71); assay: Test of viral inactivation, ASTM E1052-96 viruses in suspension; format: cell-based; conditions: 0.04% HOCl aqueous solution; 30 seconds
[19] = Acute Oral Toxicity; conditions: both sexes, rat, in vivo, 5000 mg/Kg, Wistar Rats, 0.05% concentration HOCl aqueous solutions, males and females, read-out: acute median lethal dose LD50
From the text: (§2) Table 5. contains the results of several acute and sub-chronic toxicity tests.

[20] = Acute Inhalation Toxicity; format: in vivo, Young Adult Wistar Rats
From the text: as §2

[21] = Teratogenicity; format: in vivo
From the text: as §2

[22] = Absorption through intact skin; format: in vitro ADME; conditions: low concentrations of hypochlorous acid
From the text: Thus, the potential for producing skin reactions is extremely low.

[23] = Biocompatibility in treated patients; format: in vivo, human; conditions: 0.05% HOCl aqueous solution; over 20,000 patients treated
From the text: The 0.05% HOCl concentration aqueous solution is biocompatible and found to have a high safety profile. Over 20,000 patients have been treated with the solution with zero reported cases of hypersensitivity. The solution is pH controlled for biocompatibility, formulated for use on sensitive mucous membrane areas of the body, is non-antibiotic, non-irritating, non-allergenic, non-invasive, and non-toxic. No adverse effects against cellular growth in the patient.

[24] = Controlled randomized single blind clinical trial in surgical open wounds; format: in vivo, human
Method: The biocompatibility of the 0.046% HOCl concentration aqueous solution was tested in a three way controlled and randomized single blind clinical trial. Patients were randomized into three groups (60 patients per group). The antiseptic efficacy and biocompatibility of the test solution vs. povidone-iodine vs. chlorhexidine (Chlorhexidine Gluconate—CHG) in surgical—clean and clean contaminated—open wounds was evaluated in 180 patients admitted to the surgical facilities of Erasmo Meoz Hospital in Cucuta, Colombia.

[25] = Non-randomized study of skin ulcers, 822 patients; format: in vivo, human; conditions: 0.046% HOCl aqueous solution
Method: A non-randomized, non-placebo controlled study involving 822 patients with a variety of ulcers was conducted. These patients were treated with HOCl aqueous solution (0.046%) as the only therapeutic intervention and followed the patients for six months to evaluate ulcer closure as a marker of therapeutic success.

[26] = Biocompatibility and animal testing, overall; format: in vivo; conditions: 0.05% hypochlorous acid solution
From the text: The extensive biocompatibility and animal testing that have been performed supports the safety and efficacy of the 0.05% hypochlorous acid solution. […] Due to the safety of the solution, the hypochlorous acid solution can be used repeatedly without altering or changing the properties of the skin and mucous membranes.

[27] = test system: host cells; conditions: 0.04% HOCl aqueous solution

OCl [HOCl, hypochlorous acid]
% Reduction [1]: 99.999% | Log Reduction [1]: >6.1 Log10 | % Reduction [2]: 99.999% | Log Reduction [2]: >6.5 Log10 | % Reduction [3]: 99.99% | Log Reduction [3]: >6.59 Log10 | % Reduction [4]: 99.99% | Log Reduction [4]: >5.94 Log10 | % Reduction [5]: 99.99% | Log Reduction [5]: >5.76 Log10 | % Reduction [6]: 99.99% | Log Reduction [6]: >6.21 Log10 | % Reduction [7]: 99.99% | Log Reduction [7]: >6.0 Log10 | % Reduction [8]: 99.999% | Log Reduction [8]: >6.1 Log10 | % Reduction [9]: 99.999% | Log Reduction [9]: >5.35 Log10 | % Reduction [10]: 99.999% | Log Reduction [10]: >5.46 Log10 | % Reduction [11]: 99.999% | Log Reduction [11]: >5.84 Log10 | % Reduction [12]: >99.99% | Log Reduction [12]: >4.92 Log10 | % Reduction [13]: >99.99% | Log Reduction [13]: >4.97Log10 | % Reduction [14]: 99.999% | Log Reduction [14]: >5.19 Log10 | % Reduction [15]: 99.999% | Log Reduction [15]: >5.37 Log10 | % Reduction [16]: 99.9999% | Log Reduction [16]: 7.53 | % Reduction [17]: 99.9999% | Log Reduction [17]: 7.66 | % Reduction [18]: 99.998% | Log Reduction [18]: 4.83 | LD50 [19]: > 5000 mg/kg | survival after exposure to the test atmosphere ([20]; Gravimetric Chamber concentration 2.07 mg/L of HOCl, Wistar Rats): Animals All animals survived | LC50 ([20]; both sexes, Wistar, rat, in vivo, 2.07 mg/L, male and female rats): > 2.07 µg/mL | mortalities ([21]; Oral administration of 1000 mg/Kg/day, Females and Pregnant Wistar rats): No mortalities, considered | toxicity assessment ([21]; rat, in vivo, po, 1000 mg/kg/day): non-toxic | absorption of the compound through intact skin [22]: no evidence of absorption of the compound through intact skin | reported cases of hypersensitivity [23]: zero | infected patients ([24]; 0.046% HOCl aqueous solution, 60 patients per group, surgical open wounds): no infected patients | wound appearance (biocompatibility) ([24]; human, in vivo): define edges, good color and hydrated wound beds | interference with antibiotics administered orally [25]: No interference with antibiotics administered orally | local infection rate for all ulcers [25]: Decreased the local infection rate for all ulcers | closing index for venous ulcers ([25]; at 6 months): 97% | closure of mixed ulcers ([25]; even when a surgical procedure was required): ≤ 75% | recurrence rate ([25]; ulcers): 2.7 % a year | adverse effects to the skin or mucous membranes [26]: without adverse effects to the skin or mucous membranes | adverse effects to the host cells [27]: no adverse effects to the host cells
